Measured values taken from patent US6669951B2, “Compositions and methods for enhancing drug delivery across and into epithelial tissues” (CellGate, Inc., priority 1999, dated 2003).
Read-outs that look alike come from different tables or passages of the source. Square brackets hold non-standard residues; d marks the D form. Peptide text beside a SMILES is read from it. * marks the point of attachment. FITC = O=C1OC2(c3ccc(O)cc3Oc3cc(O)ccc32)c2ccc(NC(=S)*)cc21; Ahx = NCCCCCC(=O)O

Legend:
[1] = Half-life / release of conjugate in buffer; type: physicochemical
Caco-2 cells = experiment: Cellular uptake in Caco-2 cells; type: cell-based, human; details: five minutes; for uptake into Caco-2 cells in suspension (flow cytometry): 50-0.8 μM
Method: To analyze the penetration of fluorescent oligomers of D-arginine into the cells when in suspension, the monolayers were treated with trypsin (4.5 ml of a 0.05% solution Gibco, Grand Rapids, Mich.) and the individual cell suspension was spun down.
To analyze the ability of the fluorescent peptides to enter Caco-2 cells when part of a monolayer, the cells were seeded in lab-tek flaskette microscope slides (Nalge Nunc Int., Naperville, Ill.) in 4 ml at a density of 60,000 cells/ml and grown for 21 days with the media being changed every other day. […] The monolayer was subsequently washed with PBS/2% FBS twice to remove labeled peptide and analyzed using fluorescent microscopy.
Varying concentrations of the taxol conjugates (50-0.08 μM) were added to the apical side and exposed to the monolayer of Caco-2 cells for three minutes. The membrane was removed from the apparatus, the cells trypsinized, and the resulting cell suspension was analyzed by flow cytometry (FIG. 33).

skin of nude mice = experiment: Penetration of biotinylated conjugates into skin of nude mice (streptavidin staining); details: for penetration of drug conjugates into skin: 1 mM-100 μM in PBS, nude mice, thirty, sixty, 120 minutes; for penetration into skin (streptavidin staining): mouse, in vivo
Method: Samples (100 μl) were applied as a liquid without excipient, prevented from dispersing by a Vaseline™ barrier, and allowed to penetrate for fifteen minutes. At the end of this period the animal was sacrificed, the relevant sections of skin were excised, embedded in mounting medium (OCT), and frozen. Frozen sections (5 microns) were cut using a cryostat, collected on slides, and stained with fluorescently labeled streptavidin (Vector Laboratories, Burlingame, Calif.). The slides were fixed in acetone at 4° C. for ten minutes, air dried, soaked in PBS for five minutes, blocked with normal goat serum for five minutes, and washed with PBS for five minutes. The section was stained by incubation with fluorescently labeled streptavidin at 30 μg/ml for thirty minutes, washed with PBS, counterstained with propidium iodide (1 μg/ml) for two minutes, and the section was mounted with Vectashield™ mounting media. Slides were analyzed by fluorescent microscopy. Parallel studies were done using streptavidin-horse radish peroxidase rather than fluorescein-streptavidin. The biotinylated peptide was visualized by treatment of the sections with the horseradish peroxidase substrate diaminobenzadine, and visualization with light microscopy.
Alternatively, sample (100 μl) was applied as a liquid without excipient and prevented from evaporating by wrapping plastic wrap over the sample sealed with Vaseline™. […] At the end of this period animal was sacrificed, the relevant section of skin was excised, embedded in mounting medium (OCT) and frozen. […] Slides were analyzed by fluorescent microscopy.
At the end of this period animal was sacrificed, the relevant section of skin was excised, embedded in mounting medium (OCT) and frozen. […] Slides were analyzed by fluorescent microscopy
(§1) At the end of this period animal was sacrificed, the relevant section of skin was excised, embedded in mounting medium (OCT) and frozen. […] Slides were analyzed by fluorescent microscopy.
as §1

skin of Balb/C mice = details: mouse, in vivo
Method: Slides were analyzed by fluorescent microscopy.

[2] = system: human skin grafts on SCID mice; details: in vivo
Method: Samples (100 μl) were applied as a liquid within excipient and prevented from dispersing by a Vaseline™ barrier and allowed to penetrate for fifteen minutes. At the end of this period animal was sacrificed, the relevant section of skin was excised, embedded in mounting medium (OCT) and frozen. […] Slides were analyzed by fluorescent microscopy.

Jurkat cells [3] = experiment: Cellular uptake kinetics assay (Michaelis-Menton); type: cell-based, human; set-up: Vmax: unit not given here
Method: (§2) The accuracy of this method for determining concentration was established by weighing selected samples and dissolving them in a known amount of PBS buffer. The concentrations determined by UV spectroscopy correlated with the amounts weighed out manually. Jurkat cells (human T cell line), murine B cells (CH27), or human PBL cells were grown in 10% fetal calf serum and DMEM and each of these were used for cellular uptake experiments. […] The microtiter plates were centrifuged and the cells were isolated, washed with cold PBS (3×250 μL), incubated with 0.05% trypsin/0.53 mM EDTA at 37° C. for 5 min, washed with cold PBS, and resuspended in PBS containing 0.1% propidium iodide. The cells were analyzed using fluorescent flow cytometry (FACScan, Becton Dickinson) and cells staining with propidium iodide were excluded from the analysis. The data presented is the mean fluorescent signal for the 5000 cells collected.
Cellular Uptake Kinetics Assay. The assays were performed as previously described except the cells were incubated for 0.5, 1, 2, and 4 min at 4° C. in triplicate in 2% FCS/PBS (50 μl) in microtiter plates (96 well). The reactions were quenched by diluting the samples into 2% FCS/PBS (5 mL). The assays were then worked up and analyzed by fluorescent flow cytometry as previously described.
The rates of cellular uptake were determined after incubation (3° C.) of the peptides in Jurkat cells for 30, 60, 120, and 240 seconds (Table 1).

Jurkat cells [4] = experiment: FACS cellular uptake assay; type: cell-based, human; details: 4 min, 23° C.
Method: as §2
Inhibition of Cellular Uptake with Sodium Azide. The assays were performed as previously described with the exception that the cells used were preincubated for 30 min with 0.5% sodium azide in 2% FCS/PBS buffer prior to the addition of fluorescent peptides and the cells were washed with 0.5% sodium azide in PBS buffer. All of the cellular uptake assays were run in parallel in the presence and absence of sodium azide.
To determine the structural requirements for the cellular uptake of short arginine-rich peptides, a series of fluorescently-labeled truncated analogues of Tat49-57 were synthesized using standard solid-phase chemistry. See, e.g., Atherton, E. et al. SOLID-PHASE PEPTIDE […] (IRL: Oxford, Engl. 1989). A fluorescein moiety was attached via an aminohexanoic acid spacer on the amino termini. The ability of these fluorescently labeled peptides to enter Jurkat cells was then analyzed using fluorescent activated cell sorting (FACS). The peptide constructs tested were Tat49-57 (Fl-ahx-[…]; SEQ ID NO:8): Tat49-56 (Fl-ahx-[…]; SEQ ID NO:9), Tat49-55 (Fl-ahx-RKKRRQR; SEQ ID NO: 10), Tat50-57 (Fl-ahx-[…]; SEQ ID NO: 11), and Tat51-57 (Fl-ahx-KRRQRRR; SEQ ID NO: 12). Differentiation between cell surface binding and internalization was accomplished throughout by running a parallel set of assays in the presence and absence of sodium azide. Because sodium azide inhibits energy-dependent cellular uptake but not cell surface binding, the difference in fluorescence between the two assays provided the amount of fluorescence resulting from internalization.

[5] = Jurkat cells, incubation 30, 60, 120, 240 seconds, 3° C.

C/C=C/C[C@@H](C)[C@@H](OC(=O)CN(Cc1ccccc1)C(=O)CNCC(=O)N[C@H](CCCNC(=N)N)C(=O)N[C@H](CCCNC(=N)N)C(=O)N[C@H](CCCNC(=N)N)C(=O)N[C@H](CCCNC(=N)N)C(=O)N[C@H](CCCNC(=N)N)C(=O)N[C@H](CCCNC(=N)N)C(=O)N[C@H](CCCNC(=N)N)C(=O)O)[C@H]1C(=O)N[C@@H](CC)C(=O)N(C)CC(=O)N(C)[C@@H](CC(C)C)C(=O)N[C@@H](C(C)C)C(=O)N(C)[C@@H](CC(C)C)C(=O)N[C@@H](C)C(=O)N[C@H](C)C(=O)N(C)[C@@H](CC(C)C)C(=O)N(C)[C@@H](CC(C)C)C(=O)N(C)[C@@H](C(C)C)C(=O)N1C [CGC1072]
half-life ([1]; PBS pH 7.4 (37° C. where stated)): approximately ninety | half-life ([1]; buffer, PBS, pH 7.4 at 37° C., read-out: half life (converted)): 90 min

NCCCC[C@@H](NC(=O)[C@@H](CCCCN)NC(=O)[C@@H](CCCCN)NC(=O)[C@@H](CCCCN)NC(=O)[C@@H](CCCCN)NC(=O)[C@@H](CCCCN)NC(=O)[C@@H](CCCCN)NC(=O)CCCCCNC(=S)Nc1ccc2c(c1)C(=O)OC21c2ccc(O)cc2Oc2cc(O)ccc21)C(N)=O [Fl aca k7, reference compound] ({FITC-Ahx}-[dK][dK][dK][dK][dK][dK][dK]-NH2)
uptake into Caco-2 cells in suspension (flow cytometry) (Caco-2 cells): All the polymers of arginine entered cells more effectively than the nonamers of lysine

CC(=O)O[C@H]1C(=O)[C@@]2(C)[C@H]([C@H](OC(=O)c3ccccc3)[C@]3(O)C[C@H](OC(=O)[C@H](OC(=O)NCCCC[C@H](NC(=O)[C@@H](CCCNC(=N)N)NC(=O)[C@@H](CCCNC(=N)N)NC(=O)[C@@H](CCCNC(=N)N)NC(=O)[C@@H](CCCNC(=N)N)NC(=O)[C@@H](CCCNC(=N)N)NC(=O)CCCCCNC(=O)CCCC[C@@H]4SC[C@@H]5NC(=O)N[C@@H]54)C(N)=O)[C@@H](NC(=O)c4ccccc4)c4ccccc4)C(C)=C1C3(C)C)[C@]1(OC(C)=O)CO[C@@H]1C[C@@H]2O [B-aca-r5-K-taxol]
penetration of drug conjugates into skin (skin of nude mice): very little uptake was seen

O=C(O)CCCC[C@@H]1SC[C@@H]2NC(=O)N[C@@H]21 [biotin, reference compound]
penetration into skin (streptavidin staining) (skin of nude mice): no staining was apparent | penetration into skin (skin of Balb/C mice): no staining was apparent | penetration into human skin [2]: no staining was apparent

N=C(N)NCCC[C@H](NC(=O)[C@H](CCCNC(=N)N)NC(=O)[C@H](CCCNC(=N)N)NC(=O)[C@H](CCCNC(=N)N)NC(=O)[C@H](CCCNC(=N)N)NC(=O)[C@H](CCCNC(=N)N)NC(=O)[C@H](CCCNC(=N)N)NC(=O)CCCCCNC(=S)Nc1ccc2c(c1)C(=O)OC21c2ccc(O)cc2Oc2cc(O)ccc21)C(N)=O [R7, F1-ahx-RRRRRRR]
uptake into Caco-2 cells in suspension (flow cytometry) (Caco-2 cells): r9 being more effective than r7, which was more effective than r5

N=C(N)NCCC[C@@H](NC(=O)[C@@H](CCCNC(=N)N)NC(=O)[C@@H](CCCNC(=N)N)NC(=O)[C@@H](CCCNC(=N)N)NC(=O)[C@@H](CCCNC(=N)N)NC(=O)[C@@H](CCCNC(=N)N)NC(=O)[C@@H](CCCNC(=N)N)NC(=O)CCCCCNC(=O)CCCC[C@@H]1SC[C@@H]2NC(=O)N[C@@H]21)C(N)=O [Biotinylated arginine heptamer]
penetration into skin (streptavidin staining) (skin of nude mice): crossed into and across the epidermis and into the dermis | penetration into skin (skin of Balb/C mice): crossed into and across the epidermis and into the dermis | penetration into human skin [2]: crossed into and across the epidermis and into the dermis of the human skin

N=C(N)NCCC[C@H](NC(=O)[C@H](CCCNC(=N)N)NC(=O)[C@H](CCCNC(=N)N)NC(=O)[C@H](CCCNC(=N)N)NC(=O)[C@H](CCCNC(=N)N)NC(=O)CCCCCNC(=S)Nc1ccc2c(c1)C(=O)OC21c2ccc(O)cc2Oc2cc(O)ccc21)C(N)=O [R5, F1-ahx-RRRRR] ({FITC-Ahx}-RRRRR-NH2)
uptake into Caco-2 cells in suspension (flow cytometry) (Caco-2 cells): r9 being more effective than r7, which was more effective than r5

N=C(N)NCCC[C@@H](NC(=O)[C@@H](CCCNC(=N)N)NC(=O)[C@@H](CCCNC(=N)N)NC(=O)[C@@H](CCCNC(=N)N)NC(=O)[C@@H](CCCNC(=N)N)NC(=O)[C@@H](CCCNC(=N)N)NC(=O)[C@@H](CCCNC(=N)N)NC(=O)[C@@H](CCCNC(=N)N)NC(=O)[C@@H](CCCNC(=N)N)NC(=O)CCCCCNC(=S)Nc1ccc2c(c1)C(=O)OC21c2ccc(O)cc2Oc2cc(O)ccc21)C(N)=O [r9]
Km values fold greater / fold better than Tat49-57 (Jurkat cells [3]; Discussion): 100 fold | Km (Jurkat cells [3]; [5]): 7.6 µM | Vmax (Jurkat cells [3]; [5]): 0.38 | rate of entering cells, fold faster than Tat47-59 (Jurkat cells [3]; from Km values, Jurkat cells): approximately 100 fold | cellular uptake compared with d-arginine oligomers / other peptoids (Jurkat cells [4]): comparable to N-btg9 | relative order of cellular uptake (Jurkat cells [4]; peptoids and d-arginine oligomers): N-hxg9 (6 methylene)>N-btg9 (4 methylene)>r9 (3 methylene)>N-arg9 (3 methylene)>N-etg9 (2 methylene) | uptake into Caco-2 monolayer on microscope slide (Caco-2 cells; 50 μM, fluorescent microscopy): virtually every cell in the monolayer was fluorescent after five minutes | uptake into Caco-2 cells in suspension (flow cytometry) (Caco-2 cells): r9 being more effective than r7, which was more effective than r5

CC(=O)O[C@H]1C(=O)[C@@]2(C)[C@H]([C@H](OC(=O)c3ccccc3)[C@]3(O)C[C@H](OC(=O)[C@H](OC(=O)NCCCC[C@H](NC(=O)[C@@H](CCCNC(=N)N)NC(=O)[C@@H](CCCNC(=N)N)NC(=O)[C@@H](CCCNC(=N)N)NC(=O)[C@@H](CCCNC(=N)N)NC(=O)[C@@H](CCCNC(=N)N)NC(=O)[C@@H](CCCNC(=N)N)NC(=O)[C@@H](CCCNC(=N)N)NC(=O)[C@@H](CCCNC(=N)N)NC(=O)[C@@H](CCCNC(=N)N)NC(=O)CCCCCNC(=O)CCCC[C@@H]4SC[C@@H]5NC(=O)N[C@@H]54)C(N)=O)[C@@H](NC(=O)c4ccccc4)c4ccccc4)C(C)=C1C3(C)C)[C@]1(OC(C)=O)CO[C@@H]1C[C@@H]2O [B-aca-r9-K-taxol]
penetration of drug conjugates into skin (skin of nude mice): effectively entered into and across the epidermis and into the dermis of the skin of nude mice
